Measured values taken from article PMC4862498, “PI4 Kinase Is a Prophylactic but Not Radical Curative Target in Plasmodium vivax-Type Malaria Parasites” (Antimicrobial Agents and Chemotherapy, 2016).
Values joined by “and” are separate entries in the source; they are usually repeats but may differ in a detail not shown here. Identical values can stand only once. “Also recorded” adds a separate entry of the source.

Assays:
[1] = tested on: P. cynomolgi developing EEFs (liver schizonts) in primary rhesus hepatocytes; experiment: In vitro liver-stage drug assay with P. cynomolgi, large forms (developing EEFs / liver schizonts); type: cell-based, Plasmodium cynomolgi; conditions: compound exposure 6 days, mean of several (9) independent assays, read-out: IC50 against developing EEFs / liver schizonts (large forms)
Experimental: In vitro infections of primary rhesus hepatocytes with P. cynomolgi sporozoites were performed according to methods described previously by Zeeman et al. ([10]). At day 6 postinfection (p.i.), the assay mixtures were fixed and stained with anti-P. cynomolgi Hsp70 rabbit antiserum and a fluorescein isothiocyanate (FITC)-labeled secondary antibody (goat anti-rabbit). Plates were analyzed with the Operetta high-content imaging system, differentially counting hypnozoites and developing extraerythrocytic forms (EEFs), based on parasite size ([10]).
In vitro activity against P. cynomolgi liver stages was determined for both compounds. The numbers of small (hypnozoites) and large (developing EEFs) parasites were determined by using Operetta and image analysis of primary rhesus hepatocyte cultures infected with P. cynomolgi sporozoites and exposed to the compound for 6 days ([10]). […] IC50s were determined by using the least-squares nonlinear regression method (Prism) for small and large parasites. Data from several independent experiments were used to calculate the IC50s for the two compounds.

[2] = tested on: P. cynomolgi sporozoite-infected rhesus macaques (hypnozoites, relapse); experiment: Radical cure in P. cynomolgi sporozoite-infected rhesus macaques; type: in vivo, Plasmodium cynomolgi
Experimental: Sporozoites were harvested from P. cynomolgi-infected mosquitoes, washed with phosphate-buffered saline (PBS), and diluted to 100,000 sporozoites (spz)/ml in PBS. One-milliliter aliquots of sporozoites were prepared and injected into monkeys via intravenous (i.v.) injection.
Monkeys were treated according to the schedule shown in Table 1 (stratification of treatment groups is given in the supplemental material). During treatment, monkeys were weighed daily and received the compound via gavage, followed by gastric feeding (weight change during treatment is shown in Table S6 in the supplemental material). Monkeys in the prophylaxis groups (groups 691-proph and 599-proph) were treated ∼20 min after the i.v. sporozoite injection. The other monkeys were treated when all the monkeys in the experiment (except those in the prophylaxis group) were blood-stage patent (at day 11 p.i.). To kill the blood-stage parasites, all monkeys received a 5-day treatment of 7.5 mg/kg of body weight of chloroquine (CQ) (intramuscular [i.m.] injection), during compound dosing. KDU691 was formulated in 0.5% methylcellulose and 0.5% Tween 80 in water. LMV599 was formulated as a solid dispersion in a solution containing 5.6% (wt/wt) Tween 80–44.4% hydroxypropyl methylcellulose (HPMC) E3–38.9% Soluplus–11.1% vitamin E D-alphatocopheryl polyethylene glycol 1000 succinate (TPGS).
Parasitemia was closely monitored by thin-film analysis. Animals were trained to present for thigh pricks, which was followed by a reward. Thin-film slides were stained with 20% Giemsa stain, and at least 50 fields (±20,000 erythrocytes [RBCs]) were analyzed with a bright-field microscope (×1,200 magnification). As soon as all monkeys other than the prophylactic treatment groups were blood-stage positive, treatment was started as indicated above (Table 1). After the last day of compound dosing, the absence of blood-stage parasites was confirmed by thin smears. From day 23 p.i., monkeys were monitored daily for relapses. The KDU691 radical-cure (group 691-RC) treatment and control groups were monitored until the first relapse. The LMV599 control (group 599-C), radical-cure (group 599-RC), and PQ radical-cure (group PQ-RC) treatment groups were monitored until the second relapse or until day 100 p.i. (whichever came first). At the end of the study, monkeys that had relapsed received a 14-day primaquine treatment, with a final check 2 weeks after the last primaquine dose.
P. cynomolgi sporozoite production
A monkey was infected with […] P. cynomolgi M strain blood stage parasites, thawed from a first passage stock (i.e. blood stage parasites from a monkey infected with P. cynomolgi M strain sporozoites). For each batch of sporozoites needed, a single monkey was infected with P. cynomolgi blood stage parasites.
At day 11 and 12 post infection 9 mL infected blood was collected into a Lithium-heparinised tube. The blood was kept at 38°C and fed approximately 500 three to five days old female Anopheles stephensi mosquitoes Sind-Kasur strain Nijmegen (Nijmegen University Medical Centre St Radboud, Department of Medical Microbiology) using a glass feeder system as described by Ponnudurai et al.. After the second bleed, the monkey was cured by three daily intramuscular injections of 7.5 mg/kg chloroquine, monitored for parasite clearance 24 days after chloroquine treatment and returned to colony.
Mosquitoes were kept in climate chambers at 25 °C and 80% humidity and were fed 5% D -glucose on cotton pads daily. Seven days after feeding on the infected rhesus blood, oocyst numbers were determined in midguts of ten individuals, using 1% mercurochrome stain. Mosquitoes were given a second (uninfected) blood meal immediately afterwards to promote sporozoite maturation and invasion of the salivary glands. Sporozoites were isolated from the P. cynomolgi infected mosquitoes around day16 after the infected blood meal.
In vivo monkey infection and treatment procedures […]

SMILES: CNC(=O)c1ccc(-c2cnc3cnc(C(=O)N(C)c4ccc(Cl)cc4)cn23)cc1 [KDU691]
- IC50 [1]: 61 nM and 60 nM
- radical-cure outcome ([2]; five daily oral doses of 20 mg/kg from day 11 p.i., 20 mg/kg): did not prevent relapse; also recorded: none of the animals treated with KDU691 were radically cured
- Day p.i. to first relapse ([2]; group 691-RC, 20 mg/kg oral for 5 days from day 11 p.i. plus CQ, individual monkeys): 31 day p.i. and 32 day p.i.
- day p.i. to first relapse, group mean ± SD ([2]; group 691-RC, 20 mg/kg oral for 5 days from day 11 p.i., control 25 ± 1.4): 31.8 ± 0.5 days p.i.
- delay to relapse compared to the control group ([2]; group 691-RC, 20 mg/kg oral for 5 days, P = 0.00912, log rank test): 6.8 days
- Day p.i. to primary parasitemia ([2]; group 691-RC, individual monkeys, baseline, before dosing started at day 11 p.i.): 9 day p.i.
